From patent US20260144769A1, “4-PHENYLBUTYRATE RESTORED GABA UPTAKE AND REDUCED SEIZURES IN SLC6A1 VARIANT-MEDIATED DISORDERS” (Vanderbilt University, priority 2022, published 2026)

Tests used:
[1] = test system: wildtype GAT-1 + GAT-1 V125M; assay: 3H GABA uptake, HEK293T, mixture of wildtype and mutant cDNAs ("heterozygous"); assay type: cell-based, rat; conditions: wildtype:V125M cDNAs 1:1; PBA 2 mM, 24 hrs
Protocol: (§1) GABA uptake activity was measured by the high-throughput 3H radio-labeling GABA uptake on a liquid scintillator with QuantaSmart. […] HEK293T cells were transfected with the wildtype or the mutant GAT-1^YFP cDNAs alone for 48 hr. […] HEK293T cells were transfected with the wildtype GAT-1^YFP alone or in mixture of the wildtype or the mutant cDNAs for 48 hr. In the mixed condition, the ratio of the wildtype GAT-1 with pcDNA or the mutant cDNAs are 1:1 with the total cDNA amount of 0.5 μg. […] Both wt and the mutant were normalized to its own DMSO treated conditions. 966 stands for the wildtype treated with CI-966 (50 μM) while 711 stands for NNC-711 (35 μM). (N=4-7 different transfections. In FIG. 4A and FIG. 4B, *P<0.05, **P<0.01, ***p<0.001 vs. wt 0. In FIG. C and FIG. 4D, *P<0.05, **P<0.01, ***p<0.001 vs. its own DMSO treated. In FIG. 4C, ns stands for no significance. One-way analysis of variance (ANOVA) and Newman-Keuls test. Values were expressed as mean±S.E.M.
(§2) The plasmid cDNA encoding enhanced yellow fluorescent protein (EYFP)-tagged rat GAT-1 has been previously described. The coding region of rGAT-1 was inserted into pEYFP-C1 (Clontech, Palo Alto, CA). QuikChange Site-directed Mutagenesis kit was utilized to introduce the GAT-1 variants into a wildtype GAT-1 plasmid. The product was then amplified via polymerase chain reaction, transformed using DH5a competent cells, and plated. A clone was chosen and grown overnight. All the GAT-1 variants were confirmed by DNA sequencing. Both the wildtype and the variant cDNAs were prepared with Qiagen Maxiprep kit.
(§3) Human embryonic kidney cells were cultured as monolayers in 100 mm^2 dishes. Cells were cultured in Dulbecco's Modified Eagle's Medium supplemented with 10% FBS and 1% penicillin/streptomycin in 37° C. in 5% CO2/95% air. Cells were maintained in culture medium until appropriate confluency for experimentation.
(§4) Briefly, cells were cultured in […] dishes for 3 days before the GABA uptake experiment in DMEM with 10% fetal bovine serum and 1% penicillin/streptomycin. The cells were then transfected with equal amounts of the wildtype or the mutant GAT-1 cDNAs (1 μg) for each condition at 24 hrs or 48 hrs after plating. GABA uptake assay was carried out 48 hrs after transfection. The cells were incubated with preincubation solution for 15 min and then incubated with preincubation solution containing 1 μci/mL 3H GABA and 10 μM unlabeled GABA for 30 min at room temperature. After washing, the cells were lysed with 0.25 N NaOH for 1 hr. Glacial acetic acid was added, and lysates were then determined on a liquid scintillator with QuantaSmart. The flux of GABA (pmol/μg/min) was averaged with at least triplets for each condition at each transfection. The average counting was taken as n=1. The untransfected condition was taken as a baseline that was subtracted from both the wildtype and the mutant conditions. The pmol/μg/min in the mutant was then normalized to the wildtype from each experiment, which was arbitrarily taken as 100%. The protocols for GABA reuptake assay in cultured mouse astrocytes, neuron or iPSC derived cells were modified from the GABA uptake protocol on HEK 293T cells. GAT-1 inhibitors CL-966 and NNC-711 were applied each time to make sure the radioactive counts were specific.
(§5) The working solution was stored at 4° C.

[2] = test system: wildtype GAT-1 + GAT-1 L460R; assay: as above; assay type: cell-based, rat; conditions: wildtype:L460R cDNAs 1:1; PBA 2 mM, 24 hrs
Protocol: as §1, §2, §3, §4, §5

[3] = test system: wildtype GAT-1 + GAT-1 D410E; assay: as above; assay type: cell-based, rat; conditions: wildtype:D410E cDNAs 1:1; PBA 2 mM, 24 hrs
Protocol: as §1, §2, §3, §4, §5

[4] = test system: wildtype GAT-1 + GAT-1 S295L; assay: as above; assay type: cell-based, rat; conditions: wildtype:S295L cDNAs 1:1; PBA 2 mM, 24 hrs
Protocol: as §1, §2, §3, §4, §5

[5] = test system: wildtype GAT-1 + GAT-1 W495X; assay: as above; assay type: cell-based, rat; conditions: wildtype:W495X cDNAs 1:1; PBA 2 mM, 24 hrs
Protocol: as §1, §2, §3, §4, §5

[6] = test system: wildtype GAT-1 + GAT-1 A288V; assay: as above; assay type: cell-based, rat; conditions: wildtype:A288V cDNAs 1:1; PBA 2 mM, 24 hrs
Protocol: as §1, §2, §3, §4, §5

GAT-1 L460R = GAT-1 L460R (Rattus norvegicus, UniProt P23978, L460R); assay: 3H GABA uptake, corrected iPSC astrocytes transfected with GAT-1^YFP cDNA; assay type: cell-based; parameters: The coding region of rGAT-1 was inserted into pEYFP-C1 (Clontech, Palo Alto, CA); expressed in transfected cells; host or cells: human astrocytes differentiated from CRISPR-corrected patient iPSCs; conditions: 2 mM PBA, 24 hrs
Protocol: Live images of human neural progenitor cells (NPCs), astrocytes and GABAergic inhibitory neurons differentiated from the human induced pluripotent stem cells (iPSCs) on the day of experiment. […] The DMSO treated corrected or patient cells was taken as 1. […] GABA flux was measured after 30 min transport at room temperature. The influx of GABA, expressed in pmol/μg protein/min, was averaged from duplicates for each condition and for each transfection. The average counting was DMSO treated condition taken as 1. In FIG. 5B, FIG. 5D and FIG. 5F, 966 stands for CI-966 (50 μM) and 711 stands for NNC-711 (35 μM) that was applied 30 min to the astrocytes transfected with the wildtype GAT-1^YFP before preincubation and removed during preincubation. In FIGS. 5B and D, ***p<0.001 vs. corrected DMSO treated. § § <0.01, § § § p<0.001 vs. patient DMSO treated. […] In FIGS. 5B-E, n=4-8 batches of cells. In FIG. 5F, n=4-5 different transfections). Unpaired t test was used for FIG. 5C and FIG. 5E. […] Values were expressed as mean±S.E.M.). […]
Briefly, cells were cultured in […] dishes for 3 days before the GABA uptake experiment in DMEM with 10% fetal bovine serum and 1% penicillin/streptomycin. […] Glacial acetic acid was added, and lysates were then determined on a liquid scintillator with QuantaSmart. […]

- GABA uptake normalized to its DMSO treated (GAT-1 L460R): 1.18±0.045
Compound: O=C(O)CCCc1ccccc1 [PBA, 4-phenylbutyric acid]
- GABA uptake normalized to its own DMSO treated condition [1]: 1.33±0.05
- GABA uptake normalized to its own DMSO treated condition [2]: 1.214±0.037
- GABA uptake normalized to its own DMSO treated condition [3]: 1.17±0.035
- GABA uptake normalized to its own DMSO treated condition [4]: 1.318±0.062
- GABA uptake normalized to its own DMSO treated condition [5]: 1.305±0.0296
- GABA uptake normalized to its own DMSO treated condition [6]: 1.248±0.053
